Patent publication US11299496B2, “Ligands for alpha-7 nicotinic acetylcholine receptors and methods of treating neurological and inflammatory conditions” (Northeastern University, priority 2014, dated 2022)

Molecular target: T1, human alpha-7 nAChR (Homo sapiens, UniProt P36544)
T1 construct: expressed in transfected cells; host or cells: Xenopus laevis oocytes (cRNA injection)
Assay: Two-electrode voltage clamp of alpha-7 nAChR expressed in Xenopus oocytes (net charge)
Assay type: cell-based
Settings: for Charge Alone: compound alone acting as an allosteric agonist; for Charge Alone / Charge +C: area under the curve of current vs. time; for Charge +C: compound together with choline or ACh, includes PAM and ago-PAM activity; call rule not given here
Procedure: The human alpha-7 nAChR receptor clone was obtained from Dr. Jon Lindstrom {University of Pennsylvania, Philadelphia, Pa.), aid the RIC-3 clone from Dr. Millet Treinin (Hebrew University, Jerusalem, Israel) for the purpose of co-injection with a7 to improve the level and speed of receptor expression (Halevi et al., 2003). After linearization and purification of cloned cDNA's, RNA, transcripts were prepared rising the appropriate mMessage mMachine kit tiom Ambion (Austin, Tex.).
Expression in X, laeivis Oocytes
Oocytes were obtained from mature (>9 cm) female Xenopus laeivis African frogs (Nasco, Ft. Atkinson, Wis.). Frogs were anesthetized in 0.7 g/L solution of ethyl 3-aminobenzoate methanesulfonate buffered with sodium bicarbonate, and oocytes were surgically removed through an abdominal incision. Harvested oocytes were treated with 1.25 mg/ml collagenase (Worthington Biochemicals, Freehold, N.J.) in calcium-free Barth's solution (88 mM NaCl, 1 mM KCl, 2.38 mM NaHCO3, 0.82 mM MgSO4, 15 mM HEPES, 12 mg/L tetracycline, pH 7.6) for 3-4 hours to remove the follicular layer. Stage-5 oocytes were isolated and injected with 50 nL (5-20 ng) of human alpha-7 and RIC-3 cRNA. Suitable levels of receptor expression were typically achieved 2-6 days after injection of cRNA. For experiments involving the PAM 4BP-TQS/GAT-107, where standard levels of expression result in ion currents too large to be recorded in voltage clamp, experiments were typically conducted 1-3 days after RNA injection.
Two-electrode voltage clamp experiments were conducted using OpusXpress6000A (Molecular Devices, Sunnyvale, Calif.), an integrated system that provides automated impalement and voltage clamp of up to eight oocytes in parallel. Both the current and voltage electrodes were filled with 3 M KCl, and oocytes were clamped at a holding potential of −60 mV. Data were collected at 50 Hz and filtered at 20 Hz. The oocytes were bath-perfused with Ringer's solution (115 mM NaCl, 10 mM HEPES, 2.5 mM KCl, 1.8 mM CaCl2, pH 7.3), and agonist solutions were delivered from a 96-well drug plate using disposable tips. Flow rates were set at 2 mL/min, with each drug or control solution delivered in 12 s durations, followed˜by 181 s washouts with Ringer's unless noted otherwise.
Experimental Protocols and Data Analysis
Responses of human alpha-7 receptors to agonists were measured as both peek current and net charge measured over a 120 s period beginning with the compound application (Papke and Papke, 2002). […] In experiments involving positive allosteric modulators (PAMs), the fast desensitization of alpha-7 was eliminated, allowing peak currents to be used as a valid measurement of the receptor-mediated responses (Wang et al., 2012; Williams et al., 2011).
Oocytes received two control ACh applications prior to receiving any drug in order to establish a steady reference response, and they received one or more control ACh applications at the end of all experiments. For experiments involving drug incubation through bath applications, all responses were normalized to the average of two ACh control responses taken immediately prior to the switch of bath solution, for each cell individually. These normalization procedures had the effect of compensating for differing levels of receptor expression among the multiple oocytes used in each experiment. Each experiment was conducted on at least four oocytes, with mean values and standard errors (S.E.M.) calculated from their normalized responses. […]

T1 sequence (P36544 23-502): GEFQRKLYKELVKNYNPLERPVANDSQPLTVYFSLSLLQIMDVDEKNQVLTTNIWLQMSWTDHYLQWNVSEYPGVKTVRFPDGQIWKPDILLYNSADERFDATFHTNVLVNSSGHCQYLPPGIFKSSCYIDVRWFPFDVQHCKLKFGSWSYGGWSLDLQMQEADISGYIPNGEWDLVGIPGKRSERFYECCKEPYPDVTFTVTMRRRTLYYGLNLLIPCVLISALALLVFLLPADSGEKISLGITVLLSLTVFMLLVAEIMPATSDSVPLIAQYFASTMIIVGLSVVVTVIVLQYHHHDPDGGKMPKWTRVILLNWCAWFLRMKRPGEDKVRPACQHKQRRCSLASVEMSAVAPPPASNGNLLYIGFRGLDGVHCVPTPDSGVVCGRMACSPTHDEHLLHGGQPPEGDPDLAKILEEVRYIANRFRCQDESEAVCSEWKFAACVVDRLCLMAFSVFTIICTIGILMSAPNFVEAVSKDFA

Row | Charge Alone | Charge +C | 'ago' component / ago-PAM activity (in words) | Structure (SMILES)
1 | Inactive | Inactive |  | O=S(=O)(Nc1ccccc1)c1ccc2c(c1)[C@H]1C=CC[C@H]1[C@@H](c1ccc(Br)cc1)N2 (stereo in doubt) [Compound 103, 4-(4-bromophenyl)-N-phenyl-3a,4,5,9b-tetrahydro-3H-cyclopenta[c]quinoline-8-sulfonamide]
2 | Inactive | Inactive |  | O=S(=O)(NCC1CC1)c1ccc2c(c1)[C@H]1C=CC[C@H]1[C@@H](c1ccc(Br)cc1)N2 (stereo in doubt) [Compound 105, 4-(4-bromophenyl)-N-(cyclopropylmethyl)-3a,4,5,9b-tetrahydro-3H-cyclopenta[c]quinoline-8-sulfonamide]
3 | Inactive | Inactive |  | CCCNS(=O)(=O)c1ccc2c(c1)[C@H]1C=CC[C@H]1[C@H](c1ccc(Br)cc1)N2 (stereo in doubt) [Compound 106, 4-(4-bromophenyl)-N-propyl-3a,4,5,9b-tetrahydro-3H-cyclopenta[c]quinoline-8-sulfonamide]
4 | Inactive | Inactive |  | CCCNS(=O)(=O)c1ccc2c(c1)[C@H]1C=CC[C@H]1[C@@H](c1ccc(Br)cc1)N2 (stereo in doubt) [Compound 107, 4-(4-bromophenyl)-N-propyl-3a,4,5,9b-tetrahydro-3H-cyclopenta[c]quinoline-8-sulfonamide]
5 | Inactive | Inactive |  | C=C(C)CNS(=O)(=O)c1ccc2c(c1)[C@H]1C=CC[C@H]1[C@@H](c1ccc(Br)cc1)N2 (stereo in doubt) [Compound 108, 4-(4-bromophenyl)-N-(2-methylallyl)-3a,4,5,9b-tetrahydro-3H-cyclopenta[c]quinoline-8-sulfonamide]
6 | Inactive | Inactive |  | CCC(C)CNS(=O)(=O)c1ccc2c(c1)[C@H]1C=CC[C@H]1[C@@H](c1ccc(Br)cc1)N2 (stereo in doubt) [Compound 109, 4-(4-bromophenyl)-N-(2-methylbutyl)-3a,4,5,9b-tetrahydro-3H-cyclopenta[c]quinoline-8-sulfonamide]
7 | Inactive | Inactive |  | CCCCNS(=O)(=O)c1ccc2c(c1)[C@H]1C=CC[C@H]1[C@@H](c1ccc(Br)cc1)N2 (stereo in doubt) [Compound 110, 4-(4-bromophenyl)-N-butyl-3a,4,5,9b-tetrahydro-3H-cyclopenta[c]quinoline-8-sulfonamide]
8 | Inactive | Inactive |  | CCCNS(=O)(=O)c1ccc2c(c1)[C@H]1C=CC[C@H]1[C@H](c1c(C)c(C)cc(C)c1C)N2 (stereo in doubt) [Compound 111, N-propyl-4-(2,3,5,6-tetramethylphenyl)-3a,4,5,9b-tetrahydro-3H-cyclopenta[c]quinoline-8-sulfonamide]
9 | Inactive | Inactive |  | CCCNS(=O)(=O)c1ccc2c(c1)[C@H]1C=CC[C@H]1[C@@H](c1ccccc1)N2 (stereo in doubt) [Compound 112, 4-phenyl-N-propyl-3a,4,5,9b-tetrahydro-3H-cyclopenta[c]quinoline-8-sulfonamide]
10 | Inactive | Inactive |  | CS(=O)(=O)Nc1ccc2c(c1)[C@H]1C=CC[C@H]1[C@@H](c1ccc(Br)cc1)N2 (stereo in doubt) [Compound 115, N-(4-(4-bromophenyl)-3a,4,5,9b-tetrahydro-3H-cyclopenta[c]quinolin-8-yl)methanesulfonamide]
11 | Inactive | Inactive |  | CC(=O)NS(=O)(=O)c1ccc2c(c1)[C@H]1C=CC[C@H]1[C@@H](c1ccc(Br)cc1)N2 (stereo in doubt) [Compound 116, N-((4-(4-bromophenyl)-3a,4,5,9b-tetrahydro-3H-cyclopenta[c]quinolin-8-yl)sulfonyl)acetamide]
12 | Inactive | Inactive |  | O=C(O)c1ccc2c(c1)[C@H]1C=CC[C@H]1[C@@H](c1ccc(Cl)cc1Cl)N2 [Compound 29, 4-(2,4-dichlorophenyl)-3a,4,5,9b-tetrahydro-3H-cyclopenta[c]quinoline-8-carboxylic acid]
13 | Inactive | Inactive |  | CC(=O)c1ccc2c(c1)[C@H]1C=CC[C@H]1[C@@H](c1cc3c(cc1Br)OCO3)N2 [Compound 30]
14 | Insoluble | Insoluble |  | N#Cc1ccc([C@H]2Nc3ccc(S(N)(=O)=O)cc3[C@H]3C=CC[C@H]32)s1 [Compound 34, 4-(5-cyanothiophen-2-yl)-3a,4,5,9b-tetrahydro-3H-cyclopenta[c]quinoline-8-sulfonamide]
15 |  | 5.5 |  | [N-]=[N+]=Nc1c(F)c(F)c([C@H]2Nc3ccc(S(N)(=O)=O)cc3[C@H]3C=CC[C@H]32)c(F)c1F [Compound 43, (3aR,4S,9bS)-4-(4-azido-2,3,5,6-tetrafluorophenyl)-3a,4,5,9b-tetrahydro-3H-cyclopenta[c]quinoline-8-sulfonamide]
16 | 14 | 350 |  | NS(=O)(=O)c1ccc2c(c1)[C@H]1C=CC[C@H]1[C@@H](c1ccc(C3(C(F)(F)F)N=N3)cc1)N2 [Compound 44, (3aR,4S,9bS)-4-(4-(3-(trifluoromethyl)-3H-diazirin-3-yl)phenyl)-3a,4,5,9b-tetrahydro-3H-cyclopenta[c]quinoline-8-sulfonamide]
17 | Inactive | Inactive |  | NS(=O)(=O)c1ccc2c(c1)[C@@H]1C=CC[C@@H]1[C@H](c1ccc(I)cc1)N2 [Compound 45, (3aS,4R,9bR)-4-(4-iodophenyl)-3a,4,5,9b-tetrahydro-3H-cyclopenta[c]quinoline-8-sulfonamide]
18 | 242 | 684 |  | NS(=O)(=O)c1ccc2c(c1)[C@H]1C=CC[C@H]1[C@@H](c1ccc(I)cc1)N2 [Compound 46, (3aR,4S,9bS)-4-(4-iodophenyl)-3a,4,5,9b-tetrahydro-3H-cyclopenta[c]quinoline-8-sulfonamide]
19 | Inactive | Inactive |  | [N-]=[N+]=Nc1ccc([C@@H]2Nc3ccc(S(N)(=O)=O)cc3[C@@H]3C=CC[C@@H]32)cc1 [Compound 47, (3aS,4R,9bR)-4-(4-azidophenyl)-3a,4,5,9b-tetrahydro-3H-cyclopenta[c]quinoline-8-sulfonamide]
20 | 61 | 764 |  | [N-]=[N+]=Nc1ccc([C@H]2Nc3ccc(S(N)(=O)=O)cc3[C@H]3C=CC[C@H]32)cc1 [Compound 48, (3aR,4S,9bS)-4-(4-azidophenyl)-3a,4,5,9b-tetrahydro-3H-cyclopenta[c]quinoline-8-sulfonamide]
21 | 20 | 67 | moderate ago-PAM activity | NS(=O)(=O)c1ccc2c(c1)[C@H]1C=CC[C@H]1[C@@H](c1ccc(OCc3ccccc3)cc1)N2 [Compound 50, (3aR,4S,9bS)-4-(4-(benzyloxy)phenyl)-3a,4,5,9b-tetrahydro-3H-cyclopenta[c]quinoline-8-sulfonamide]
22 |  | 10 |  | NS(=O)(=O)c1ccc2c(c1)[C@H]1C=CC[C@H]1[C@@H](c1cccnc1)N2 [Compound 51, 4-(pyridin-3-yl)-3a,4,5,9b-tetrahydro-3H-cyclopenta[c]quinoline-8-sulfonamide]
23 | Inactive | Inactive |  | O=S(=O)(c1ccc2c(c1)[C@H]1C=CC[C@H]1[C@@H](c1ccc(Br)cc1)N2)N1CCC1 [Compound 54, 8-(azetidin-1-ylsulfonyl)-4-(4-bromophenyl)-3a,4,5,9b-tetrahydro-3H-cyclopenta[c]quinolone]
